These results are taken from ChEMBL document CHEMBL5465560, “Selectivity Literature for EUbOPEN Chemogenomic Library” (2024).

The target of experiment [1] is Serine/threonine-protein kinase Chk2 (Homo sapiens) (UniProt O96017). Description: Selectivity interaction (ActivX KiNativ screen (ex vivo kinase selectivity in human PBMCs)) EUB0001619a CHEK2. Format: cell-based. The following applies: PBMC, at 1 µM.
Experiment [2] addresses Tyrosine-protein kinase JAK1 (Homo sapiens, UniProt P23458). The following applies: at 10 µM.
Experiment [3] relates to Platelet-derived growth factor receptor alpha (Homo sapiens), P16234 [D842V]. Description: (§1) Selectivity interaction (SelectScreen profiling (Invitrogen)) EUB0000607a PDGFRA. The following applies: at 2 µM.
Platelet-derived growth factor receptor alpha (Homo sapiens), P16234 [D842V], sequence (P16234 whole entry D842V): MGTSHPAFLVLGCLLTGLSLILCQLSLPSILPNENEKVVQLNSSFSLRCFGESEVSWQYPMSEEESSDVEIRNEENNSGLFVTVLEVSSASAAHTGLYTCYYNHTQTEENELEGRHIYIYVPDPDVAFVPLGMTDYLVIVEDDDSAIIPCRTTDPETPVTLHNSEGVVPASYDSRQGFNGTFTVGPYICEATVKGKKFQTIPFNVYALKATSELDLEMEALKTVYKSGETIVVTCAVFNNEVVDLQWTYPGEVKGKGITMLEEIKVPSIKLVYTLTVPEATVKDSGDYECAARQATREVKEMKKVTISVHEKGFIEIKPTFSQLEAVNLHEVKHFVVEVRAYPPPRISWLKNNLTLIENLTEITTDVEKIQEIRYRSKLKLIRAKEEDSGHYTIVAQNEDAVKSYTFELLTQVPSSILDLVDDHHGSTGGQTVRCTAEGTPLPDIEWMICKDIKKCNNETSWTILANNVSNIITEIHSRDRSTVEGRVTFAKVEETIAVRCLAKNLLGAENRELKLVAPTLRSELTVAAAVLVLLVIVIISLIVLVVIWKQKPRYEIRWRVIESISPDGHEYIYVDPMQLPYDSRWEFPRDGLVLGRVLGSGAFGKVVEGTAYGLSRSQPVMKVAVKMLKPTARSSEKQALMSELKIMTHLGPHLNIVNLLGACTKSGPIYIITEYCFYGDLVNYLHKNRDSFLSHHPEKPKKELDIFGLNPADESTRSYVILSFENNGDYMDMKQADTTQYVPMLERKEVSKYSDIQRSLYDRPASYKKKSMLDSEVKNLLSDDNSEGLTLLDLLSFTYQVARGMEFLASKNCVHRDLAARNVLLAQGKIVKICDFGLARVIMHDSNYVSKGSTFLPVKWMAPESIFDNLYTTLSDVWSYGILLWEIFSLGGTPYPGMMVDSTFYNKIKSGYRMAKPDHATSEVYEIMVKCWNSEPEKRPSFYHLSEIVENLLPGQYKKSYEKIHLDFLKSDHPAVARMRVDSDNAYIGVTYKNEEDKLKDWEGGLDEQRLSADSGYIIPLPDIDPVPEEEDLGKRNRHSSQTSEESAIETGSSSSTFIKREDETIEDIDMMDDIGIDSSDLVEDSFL
Experiment [4] relates to Platelet-derived growth factor receptor alpha (Homo sapiens), P16234 [T674I]. The description is as §1. The following applies: at 2 µM.
Platelet-derived growth factor receptor alpha (Homo sapiens), P16234 [T674I], sequence (P16234 whole entry T674I): as the sequence (P16234 whole entry D842V) above, with T674I, V842D counted along it
The test system of experiment [5] is Platelet-derived growth factor receptor alpha (Homo sapiens), P16234 [V561D]. The description is as §1. The following applies: at 2 µM.
Platelet-derived growth factor receptor alpha (Homo sapiens), P16234 [V561D], sequence (P16234 whole entry V561D): as the sequence (P16234 whole entry D842V) above, with V561D, V842D counted along it
The target in experiment [6] is Platelet-derived growth factor receptor alpha (Homo sapiens, UniProt P16234). The experiment is described as §1. The following applies: at 2 µM.
Platelet-derived growth factor receptor alpha, sequence (P16234 whole entry): as the sequence (P16234 whole entry D842V) above, with V842D counted along it
Experiment [7] concerns Hepatocyte growth factor receptor (Homo sapiens), P08581 [M1250T]. Description: (§2) Selectivity interaction (KinomeScan (DiscoverX)) EUB0001049a MET. The following applies: at 1 µM.
Experiment [8] relates to Hepatocyte growth factor receptor (Homo sapiens), P08581 [Y1235D]. The description is as §2. The following applies: at 1 µM.
Experiment [9] addresses Hepatocyte growth factor receptor (Homo sapiens, UniProt P08581). The description is as §2. The following applies: at 1 µM.
Experiment [10] concerns the target T1, Phosphorylase b kinase gamma catalytic chain, liver/testis isoform (Homo sapiens) (UniProt P15735).
T1 sequence (whole entry): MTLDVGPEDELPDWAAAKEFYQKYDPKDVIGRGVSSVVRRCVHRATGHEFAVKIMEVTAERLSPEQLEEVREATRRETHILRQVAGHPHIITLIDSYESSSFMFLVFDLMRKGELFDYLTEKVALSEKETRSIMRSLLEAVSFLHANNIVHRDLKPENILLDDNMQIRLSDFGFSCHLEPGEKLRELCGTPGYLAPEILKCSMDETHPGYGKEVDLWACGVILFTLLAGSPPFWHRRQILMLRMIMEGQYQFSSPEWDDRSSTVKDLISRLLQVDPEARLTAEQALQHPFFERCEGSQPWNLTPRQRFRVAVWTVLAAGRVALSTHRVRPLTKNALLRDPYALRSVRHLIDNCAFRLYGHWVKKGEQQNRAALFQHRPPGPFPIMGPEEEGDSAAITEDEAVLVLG
Kind of experiment: Selectivity interaction (KinomeScan (DiscoverX)) EUB0000618a PHKG2. The following applies: at 10 µM.

Experiment [11] has as its target Phosphatidylinositol 4-phosphate 5-kinase type-1 alpha (Homo sapiens) (UniProt Q99755). Description: Selectivity interaction (KinomeScan (DiscoverX)) EUB0000618a PIP5K1A. The following applies: at 10 µM.
Experiment [12] has as its target T2, Receptor-interacting serine/threonine-protein kinase 1 (Homo sapiens) (UniProt Q13546).
T2 sequence (whole entry): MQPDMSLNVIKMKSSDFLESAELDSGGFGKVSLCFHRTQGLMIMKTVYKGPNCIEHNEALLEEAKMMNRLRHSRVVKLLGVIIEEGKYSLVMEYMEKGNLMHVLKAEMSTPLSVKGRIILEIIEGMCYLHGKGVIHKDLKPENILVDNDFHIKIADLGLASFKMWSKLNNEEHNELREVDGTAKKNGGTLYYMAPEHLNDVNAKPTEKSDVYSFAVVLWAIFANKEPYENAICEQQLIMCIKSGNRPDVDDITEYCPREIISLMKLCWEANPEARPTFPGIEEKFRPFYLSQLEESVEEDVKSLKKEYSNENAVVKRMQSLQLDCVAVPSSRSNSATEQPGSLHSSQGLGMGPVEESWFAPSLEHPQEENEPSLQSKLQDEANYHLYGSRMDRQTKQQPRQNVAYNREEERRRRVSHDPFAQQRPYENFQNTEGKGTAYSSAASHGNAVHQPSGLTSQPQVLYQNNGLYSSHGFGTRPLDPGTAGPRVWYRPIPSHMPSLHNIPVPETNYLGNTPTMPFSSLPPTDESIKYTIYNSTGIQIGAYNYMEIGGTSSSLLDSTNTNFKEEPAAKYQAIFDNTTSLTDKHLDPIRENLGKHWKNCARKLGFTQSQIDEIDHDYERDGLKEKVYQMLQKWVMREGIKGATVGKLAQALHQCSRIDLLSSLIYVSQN
Description: Selectivity interaction (KinomeScan (DiscoverX)) EUB0000618a RIPK1. The following applies: at 10 µM.

For experiment [13], the target named is DNA (cytosine-5)-methyltransferase 3B (Homo sapiens) (UniProt Q9UBC3). Kind of experiment: Selectivity interaction (Methyltransferase screen (radiometric assays, panel of 8 PRMTs, 21 protein lysine methyltransferases, 3 DNA methyltransferases, and one RNA methyltransferase)) EUB0000272b DNMT3B.
The target in experiment [14] is Mitogen-activated protein kinase kinase kinase kinase 4 (Homo sapiens, UniProt O95819). Kind of experiment: Selectivity interaction (KinomeScan (DiscoverX)) EUB0001079a MAP4K4. The following applies: at 1 µM.
Experiment [15] concerns the target T3, Serine/threonine-protein kinase RIO1 (Homo sapiens) (UniProt Q9BRS2).
T3 sequence (whole entry): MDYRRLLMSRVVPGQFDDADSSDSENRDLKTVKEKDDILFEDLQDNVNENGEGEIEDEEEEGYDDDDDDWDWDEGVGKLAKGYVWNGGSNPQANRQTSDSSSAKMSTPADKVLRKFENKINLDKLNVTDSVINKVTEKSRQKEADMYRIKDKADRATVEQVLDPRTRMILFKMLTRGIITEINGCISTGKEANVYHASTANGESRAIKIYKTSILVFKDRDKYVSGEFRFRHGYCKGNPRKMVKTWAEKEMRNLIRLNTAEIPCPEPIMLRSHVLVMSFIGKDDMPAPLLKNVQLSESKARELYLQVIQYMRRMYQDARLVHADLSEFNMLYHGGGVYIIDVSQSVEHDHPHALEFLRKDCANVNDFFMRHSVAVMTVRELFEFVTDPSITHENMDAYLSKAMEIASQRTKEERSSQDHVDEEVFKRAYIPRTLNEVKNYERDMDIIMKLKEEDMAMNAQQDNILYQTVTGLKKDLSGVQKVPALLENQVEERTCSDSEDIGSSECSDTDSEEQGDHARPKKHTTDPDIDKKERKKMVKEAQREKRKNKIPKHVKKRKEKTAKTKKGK
Kind of experiment: Selectivity interaction (KinomeScan (DiscoverX)) EUB0000229b RIOK1. The following applies: at 10 µM.

The target of experiment [16] is Mitogen-activated protein kinase 8 (Homo sapiens, UniProt P45983). Kind of experiment: Selectivity interaction (Kinase panel (KiNativ target engagement assay in Jurkat cells)) EUB0001635a MAPK8. Format: cell-based. The following applies: at 1 µM.
Mitogen-activated protein kinase 8, sequence (P45983 whole entry): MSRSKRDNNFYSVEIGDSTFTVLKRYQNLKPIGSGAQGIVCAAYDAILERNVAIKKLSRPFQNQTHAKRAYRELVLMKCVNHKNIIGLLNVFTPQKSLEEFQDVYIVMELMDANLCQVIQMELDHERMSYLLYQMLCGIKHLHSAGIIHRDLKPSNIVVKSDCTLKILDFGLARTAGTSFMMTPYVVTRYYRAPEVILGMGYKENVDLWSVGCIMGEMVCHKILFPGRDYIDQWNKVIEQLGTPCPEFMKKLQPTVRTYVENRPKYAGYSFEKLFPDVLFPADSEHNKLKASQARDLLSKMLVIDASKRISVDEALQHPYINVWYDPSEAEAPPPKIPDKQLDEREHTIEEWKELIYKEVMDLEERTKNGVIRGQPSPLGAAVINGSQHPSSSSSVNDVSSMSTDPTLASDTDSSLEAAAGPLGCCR

Hepatocyte growth factor receptor, sequence (P08581 whole entry, canonical isoform): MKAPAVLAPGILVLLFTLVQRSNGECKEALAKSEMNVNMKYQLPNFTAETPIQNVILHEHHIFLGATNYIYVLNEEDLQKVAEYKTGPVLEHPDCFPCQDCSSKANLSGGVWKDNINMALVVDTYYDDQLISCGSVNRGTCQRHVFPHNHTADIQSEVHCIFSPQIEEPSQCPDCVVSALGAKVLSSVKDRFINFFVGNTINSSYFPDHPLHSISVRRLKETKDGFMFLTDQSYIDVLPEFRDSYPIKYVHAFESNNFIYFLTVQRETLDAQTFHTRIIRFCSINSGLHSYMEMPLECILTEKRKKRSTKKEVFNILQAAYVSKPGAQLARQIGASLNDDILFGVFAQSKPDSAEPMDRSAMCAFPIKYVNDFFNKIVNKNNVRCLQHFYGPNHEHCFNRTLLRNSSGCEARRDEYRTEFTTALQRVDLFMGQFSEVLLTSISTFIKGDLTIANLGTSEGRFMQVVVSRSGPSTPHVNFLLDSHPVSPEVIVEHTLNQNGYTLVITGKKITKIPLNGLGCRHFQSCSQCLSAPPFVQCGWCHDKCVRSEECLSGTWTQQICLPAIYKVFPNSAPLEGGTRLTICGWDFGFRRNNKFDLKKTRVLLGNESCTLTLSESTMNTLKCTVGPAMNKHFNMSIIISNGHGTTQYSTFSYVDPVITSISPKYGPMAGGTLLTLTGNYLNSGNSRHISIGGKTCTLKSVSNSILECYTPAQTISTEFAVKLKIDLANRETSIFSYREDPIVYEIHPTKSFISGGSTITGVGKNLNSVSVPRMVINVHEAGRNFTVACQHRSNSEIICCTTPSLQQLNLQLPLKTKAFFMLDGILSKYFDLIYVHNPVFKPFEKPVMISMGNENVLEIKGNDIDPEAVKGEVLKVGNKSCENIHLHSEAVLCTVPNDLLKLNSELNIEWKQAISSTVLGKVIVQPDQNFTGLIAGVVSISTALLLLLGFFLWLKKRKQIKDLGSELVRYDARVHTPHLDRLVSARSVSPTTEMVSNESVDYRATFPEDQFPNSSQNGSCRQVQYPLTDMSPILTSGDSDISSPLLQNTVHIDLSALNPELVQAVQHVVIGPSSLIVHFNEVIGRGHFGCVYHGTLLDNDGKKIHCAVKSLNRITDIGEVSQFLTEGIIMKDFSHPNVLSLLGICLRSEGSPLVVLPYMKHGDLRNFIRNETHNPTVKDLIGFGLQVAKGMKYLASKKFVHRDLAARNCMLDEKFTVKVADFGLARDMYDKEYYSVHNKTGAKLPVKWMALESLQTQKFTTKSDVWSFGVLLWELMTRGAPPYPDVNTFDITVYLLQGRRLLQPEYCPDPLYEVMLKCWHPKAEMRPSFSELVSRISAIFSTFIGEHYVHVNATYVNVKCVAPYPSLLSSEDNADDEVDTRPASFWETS
Tyrosine-protein kinase JAK1, sequence (P23458 whole entry): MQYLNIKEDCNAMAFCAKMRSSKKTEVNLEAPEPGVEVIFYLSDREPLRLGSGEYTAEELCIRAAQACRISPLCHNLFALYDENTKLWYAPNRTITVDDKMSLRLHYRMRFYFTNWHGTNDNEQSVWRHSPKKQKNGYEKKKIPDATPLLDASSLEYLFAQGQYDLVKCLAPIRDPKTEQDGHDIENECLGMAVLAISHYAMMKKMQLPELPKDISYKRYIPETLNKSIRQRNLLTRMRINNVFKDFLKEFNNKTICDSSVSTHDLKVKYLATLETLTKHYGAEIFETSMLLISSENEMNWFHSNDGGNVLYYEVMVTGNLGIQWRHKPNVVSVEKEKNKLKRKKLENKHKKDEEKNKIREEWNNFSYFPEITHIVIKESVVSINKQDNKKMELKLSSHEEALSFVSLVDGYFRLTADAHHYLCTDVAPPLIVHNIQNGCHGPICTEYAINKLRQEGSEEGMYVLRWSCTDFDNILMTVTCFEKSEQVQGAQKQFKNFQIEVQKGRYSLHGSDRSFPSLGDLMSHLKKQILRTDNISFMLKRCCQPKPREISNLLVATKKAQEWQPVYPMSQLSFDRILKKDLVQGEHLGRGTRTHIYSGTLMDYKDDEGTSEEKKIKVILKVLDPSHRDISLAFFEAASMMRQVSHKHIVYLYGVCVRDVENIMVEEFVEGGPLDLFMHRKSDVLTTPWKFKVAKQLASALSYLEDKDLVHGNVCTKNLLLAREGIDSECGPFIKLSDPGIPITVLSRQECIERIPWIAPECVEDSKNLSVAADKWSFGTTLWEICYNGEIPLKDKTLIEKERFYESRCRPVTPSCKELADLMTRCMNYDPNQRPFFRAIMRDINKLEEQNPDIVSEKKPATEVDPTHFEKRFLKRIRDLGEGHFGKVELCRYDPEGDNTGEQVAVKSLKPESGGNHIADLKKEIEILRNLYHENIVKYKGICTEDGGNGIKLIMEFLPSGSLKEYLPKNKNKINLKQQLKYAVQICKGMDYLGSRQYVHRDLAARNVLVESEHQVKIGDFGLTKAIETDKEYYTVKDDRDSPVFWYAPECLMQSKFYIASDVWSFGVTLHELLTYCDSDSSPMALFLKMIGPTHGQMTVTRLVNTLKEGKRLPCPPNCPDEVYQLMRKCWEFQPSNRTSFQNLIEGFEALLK
Phosphatidylinositol 4-phosphate 5-kinase type-1 alpha (Homo sapiens), sequence (Q99755 whole entry): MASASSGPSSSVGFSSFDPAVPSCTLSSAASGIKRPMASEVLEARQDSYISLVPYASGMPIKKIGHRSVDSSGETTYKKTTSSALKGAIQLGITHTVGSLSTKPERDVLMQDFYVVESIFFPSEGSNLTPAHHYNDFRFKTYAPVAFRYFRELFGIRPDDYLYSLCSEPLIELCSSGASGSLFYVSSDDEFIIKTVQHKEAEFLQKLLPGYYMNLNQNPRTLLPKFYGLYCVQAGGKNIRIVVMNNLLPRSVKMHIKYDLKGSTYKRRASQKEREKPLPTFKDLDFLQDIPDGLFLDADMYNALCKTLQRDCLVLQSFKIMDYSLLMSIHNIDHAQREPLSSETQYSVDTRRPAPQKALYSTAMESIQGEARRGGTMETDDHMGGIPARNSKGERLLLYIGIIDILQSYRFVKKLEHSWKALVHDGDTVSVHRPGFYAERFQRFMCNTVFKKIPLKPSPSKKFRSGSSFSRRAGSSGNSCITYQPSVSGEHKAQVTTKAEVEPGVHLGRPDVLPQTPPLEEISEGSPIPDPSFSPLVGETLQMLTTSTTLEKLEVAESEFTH

The compound `N#Cc1cccc(-c2c[nH]c3ncnc(N4CCOCC4)c23)c1` gave a % of inhibition in experiment [1] of 2%.

For the compound `CCN(CC)CCCCNc1ncc2cc(-c3cc(OC)cc(OC)c3)c(NC(=O)NC(C)(C)C)nc2n1`, the % of control in [2] was 100%.

In the case of `CNC(=O)Nc1ccc(-c2nc(N3CC4CCC(C3)O4)c3cnn(C4CCC5(CC4)OCCO5)c3n2)cc1`, the % of inhibition in [3] was 4%; in experiment [4] it was 12%; in experiment [5], 3%; in experiment [6], 0%.

`COc1cc(Nc2nc(C)cc(-c3cnn4nc(OC)ccc34)n2)cc(C(F)(F)F)c1`: the % of control is 100% in [7], 82% in experiment [8] and 93% in [9].

In the case of `O[C@H]1CC[C@H](Nc2ncc3nc(Nc4c(F)cc(F)cc4F)n([C@H]4CCOC4)c3n2)CC1`, the % of control is 99% in experiment [10], 93% in experiment [11] and 100% in experiment [12].

For the compound `Cc1cc(C)cc([C@H]2c3cc(C)ccc3NC(=O)CN2C(=O)c2ccc(Br)s2)c1`, the % of activity came out at 97.3% in [13] (at 1 µM) and 102% in [13] (at 10 µM).

In [14], `Nc1cnc(N2CCc3cc(S(=O)(=O)Nc4c(F)cc(Cl)cc4F)cc(N4CCCC4=O)c32)nc1` [TP-020n] registered a % of control of 61%.

Compound `COc1cc(N(C)c2ccnc3ccc(C(F)(F)F)cc23)cc(OC)c1OC` came in with a % binding in [15] of 95%.

Regarding `C=CC(=O)Nc1ccc(C(=O)Nc2[nH]nc3c2CN(C(=O)N[C@H](CN(C)C)c2ccccc2)C3(C)C)cc1`, in [16], the % of engagement is -7.2%.
